# Experiments:
# PRMT7 [1] = target: T1, PRMT7 (Homo sapiens, UniProt Q9NVM4); assay: radiometric enzyme kinetics (Km of the methyl donor) with HSPA8 as substrate in presence of ATP; assay type: biochemical
# T1 sequence (Q9NVM4 1-692): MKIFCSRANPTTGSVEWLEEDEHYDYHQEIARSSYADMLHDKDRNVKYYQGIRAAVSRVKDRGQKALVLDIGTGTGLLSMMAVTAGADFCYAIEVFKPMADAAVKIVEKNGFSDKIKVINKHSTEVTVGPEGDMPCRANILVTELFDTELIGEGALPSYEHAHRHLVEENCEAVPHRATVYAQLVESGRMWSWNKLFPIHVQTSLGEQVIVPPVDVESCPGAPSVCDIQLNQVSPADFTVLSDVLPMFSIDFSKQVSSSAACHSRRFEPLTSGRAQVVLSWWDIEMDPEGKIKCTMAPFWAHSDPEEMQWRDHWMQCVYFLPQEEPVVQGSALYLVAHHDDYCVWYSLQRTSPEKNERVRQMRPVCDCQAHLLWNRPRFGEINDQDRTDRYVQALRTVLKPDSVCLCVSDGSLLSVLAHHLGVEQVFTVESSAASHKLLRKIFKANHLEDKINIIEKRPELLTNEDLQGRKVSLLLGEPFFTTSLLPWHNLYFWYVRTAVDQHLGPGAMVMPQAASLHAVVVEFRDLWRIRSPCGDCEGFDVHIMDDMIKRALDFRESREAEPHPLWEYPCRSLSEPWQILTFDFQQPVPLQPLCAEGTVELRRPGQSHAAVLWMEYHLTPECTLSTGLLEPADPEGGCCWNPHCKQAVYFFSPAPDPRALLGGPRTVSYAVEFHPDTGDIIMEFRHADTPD
# PRMT7 [2] = target: T1, PRMT7; assay: radiometric SPA methyltransferase assay, 3H-SAM and H2B ([…]); assay type: biochemical
Compound,Km (PRMT7 [1]) [µM],IC50 (PRMT7 [2]) [µM]
C[S@@+](CC[C@H](N)C(=O)O)C[C@H]1O[C@@H](n2cnc3c(N)ncnc32)[C@H](O)[C@@H]1O [SAM],1.6 ± 0.1,
NCCCSC[C@H]1O[C@@H](n2cnc3c(N)ncnc32)[C@H](O)[C@@H]1O [SGC0911],,1

# From PMC7224190, “Pharmacological inhibition of PRMT7 links arginine monomethylation to the cellular stress response” (Nature Communications, 2020)
